The results in this text go back to PubChem BioAssay AID488931 (Broad Institute, 2010).

Calls of active or inactive are those of the source.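 Rule for the calls: active = rising protection curve whose AC50 sits at or below ten times the top dose tested for that sample; inconclusive = flat response between 30 and 70 percent, or poor fit; inactive = the rest.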

The nature of the test: INS-1E mitochondrial potential rescue under cytokines – cell-based, JC-1 fluorescence ratio, dry powder, dose response (AID 488931). The note with it: INS-1E cytokine-induced mitochondrial depolarization, JC-1 ratio, 48 h; at 19.5 µM (top of the series).
Turning to `C[C@@H]1CN([C@@H](C)CO)C(=O)c2cccc(NC(=O)Nc3cccc4ccccc34)c2O[C@H]1CN(C)S(=O)(=O)c1ccccc1`, the protection from depolarization is 12.8% (inactive). In the case of `C[C@@H]1CN([C@H](C)CO)C(=O)c2cccc(NC(=O)Nc3ccccc3)c2O[C@H]1CN(C)S(=O)(=O)c1ccc(F)cc1`, the protection from depolarization is 3.73% (inactive).

On to `C[C@@H]1CN([C@@H](C)CO)C(=O)c2cccc(NC(=O)Nc3cccc4ccccc34)c2O[C@H]1CN(C)S(=O)(=O)c1ccc(OC(F)(F)F)cc1`, for which the protection from depolarization was -17.1% (inactive). As to `COc1ccc(NC(=O)N(C)C[C@@H]2Oc3c(NC(=O)Nc4cccc5ccccc45)cccc3C(=O)N([C@@H](C)CO)C[C@H]2C)cc1`, the protection from depolarization is -6.82% (inactive). The value for `Cc1ccc(S(=O)(=O)N(C)C[C@@H]2Oc3c(NC(=O)Nc4cccc5ccccc45)cccc3C(=O)N([C@@H](C)CO)C[C@H]2C)cc1` was 13.7% (inactive). For `C[C@@H]1CN([C@@H](C)CO)C(=O)c2cccc(NC(=O)Nc3cccc4ccccc34)c2O[C@H]1CN(C)C(=O)NC1CCCCC1`, the protection from depolarization was -5.64% (inactive). Turning to `COc1ccc(S(=O)(=O)N(C)C[C@@H]2Oc3c(NC(=O)Nc4cccc5ccccc45)cccc3C(=O)N([C@H](C)CO)C[C@@H]2C)cc1`, the protection from depolarization was 2.53% (inactive). The value for `C[C@@H]1CN([C@H](C)CO)C(=O)c2cccc(NC(=O)Nc3ccccc3)c2O[C@H]1CN(C)S(=O)(=O)c1ccc(Cl)cc1` was 27.7% (inactive). Turning to `COc1ccc(S(=O)(=O)N(C)C[C@@H]2Oc3c(NC(=O)c4nc5ccccc5s4)cccc3C(=O)N([C@@H](C)CO)C[C@H]2C)cc1`, the protection from depolarization was -8.98% (inactive).

`C[C@@H]1CN([C@@H](C)CO)C(=O)c2cccc(NC(=O)Nc3cccc4ccccc34)c2O[C@H]1CN(C)CC1CC1`: the protection from depolarization was 9.67% (inactive). `COc1ccc(S(=O)(=O)N(C)C[C@@H]2Oc3c(NC(=O)Nc4ccc(F)cc4)cccc3C(=O)N([C@H](C)CO)C[C@H]2C)cc1`: the protection from depolarization was 10.6% (inactive). `C[C@@H]1CN([C@@H](C)CO)C(=O)c2cccc(NC(=O)Nc3cccc4ccccc34)c2O[C@H]1CN(C)S(=O)(=O)c1cccs1`: the protection from depolarization was -8.53% (inactive). As to `Cc1ccc(S(=O)(=O)N(C)C[C@@H]2Oc3c(NC(=O)Nc4ccc(F)cc4)cccc3C(=O)N([C@H](C)CO)C[C@H]2C)cc1`, the protection from depolarization was 15.8% (inactive).

Turning to `C[C@@H]1CN([C@@H](C)CO)C(=O)c2cccc(NC(=O)Nc3cccc4ccccc34)c2O[C@H]1CN(C)S(=O)(=O)c1ccc2c(c1)OCCCO2`, the protection from depolarization was 5.1% (inactive).

For the molecule `COc1ccc(S(=O)(=O)N(C)C[C@@H]2Oc3c(NS(=O)(=O)c4ccc(C)cc4)cccc3C(=O)N([C@@H](C)CO)C[C@H]2C)cc1`, the protection from depolarization was 2.95% (inactive). For the molecule `C[C@@H]1CN([C@@H](C)CO)C(=O)c2cccc(NC(=O)Nc3cccc4ccccc34)c2O[C@H]1CN(C)S(=O)(=O)c1ccc2c(c1)OCO2`, the protection from depolarization is 14.5% (inactive).

For the molecule `COc1ccc(S(=O)(=O)N(C)C[C@@H]2Oc3c(NC(=O)c4ccc(-c5nccs5)cc4)cccc3C(=O)N([C@@H](C)CO)C[C@H]2C)cc1`, the protection from depolarization was 3.72% (inactive).

Take `C[C@@H]1CN([C@@H](C)CO)C(=O)c2cccc(NS(=O)(=O)c3ccccc3)c2O[C@H]1CN(C)Cc1ccc(C(F)(F)F)cc1`: the protection from depolarization is -0.0726% (inactive). Consider `C[C@@H]1CN([C@H](C)CO)C(=O)c2cccc(NC(=O)Nc3cccc4ccccc34)c2O[C@H]1CN(C)S(=O)(=O)c1ccc(Cl)cc1`, for which the protection from depolarization was 20.7% (inactive).

Take `COc1ccc(S(=O)(=O)N(C)C[C@@H]2Oc3ccc(NC(=O)Nc4cccc5ccccc45)cc3C(=O)N([C@@H](C)CO)C[C@H]2C)cc1`: the protection from depolarization is -7.17% (inactive).
